{"source": "patent US11505574B2", "about": "“Modulation of P53 for the treatment of cancer” (THE REGENTS OF THE UNIVERSITY OF CALIFORNIA, priority 2016, dated 2022)", "key": {"[1]": {"system": "MIA-PaCa-2 pancreatic cancer cells", "test": "MIA-PaCa-2 cell colony formation assay (peptides)", "assay_type": "cell-based, human", "conditions": "miaPaCa2 cells (mutant p53); 10 μM for 20 minutes then 0.25 ng/mL doxorubicin 18 hours (FIG. 37D)", "excerpt": "[…] […] After colonies formed they were fixed (i.e., using 7:1 MeOH:glacial acetic acid) and stained with crystal violet."}, "[2]": {"system": "MCF7 cells", "test": "MCF7 cell colony formation assay (peptides)", "assay_type": "cell-based, human", "conditions": "MCF7 cells; 5 μM; 6.25 ng/mL doxorubicin 48 hours (FIG. 34C)", "protocol": "In order to test the effect of the RBM38 and eIF4E peptides on cancer cell colony formation, MCF7 cells were seeded in 6-well plates at a density of 1×10^3 cells per well. The following day, cells were treated with peptides. In order to form stable complexes with PEP1, 100 μl of serum-free DMEM was added to individual Eppendorf tubes. Control (SEQ ID NO:11), RBM38, and eIF4E peptides were added at a concentration of 375 nM and then 7.5 μg of PEP1 was added to each peptide (20:1). The complexes were incubated for 20 minutes at room temperature and then added dropwise to cells. Cell media was changed every three days until colonies were visible. The cells were fixed and then stained with crystal violet.\nIn order to test the effect of a combination treatment comprising peptides of the present invention and a chemotherapeutic agent on cancer cell colony formation, MCF7 cells were seeded in 6-well plates at a density of 1×10^3 cells per well. The following day, cells were treated with peptides. In order to form stable complexes with PEP1, 100 μL of serum-free DMEM was added to individual Eppendorf tubes. Control, RBM38, eIF4E, and peptide-8 peptides were added at a concentration of 375 nM and then 7.5 μg of PEP1 was added to each peptide (20:1). The complexes were incubated for 20 minutes at room temperature and then added dropwise to cells. 20 minutes after addition of peptide complexes, 3.125 ng/mL doxorubicin was added to the cells. Cell media was changed every three days until colonies were visible. The cells were fixed and then stained with crystal violet.\n(§1) For the experiments shown in FIG. 34C, MCF7 cells were seeded on a 6-well plate at a seed density of 1×10^3 cells per well. The following day the cells were treated with 5 μM Pen-Ctrl or 5 μM Pen-Pep23. The following day, 6.25 ng/mL doxorubicin was added to the cells for 48 hours. Subsequently, the cell media was changed every 3 days until colonies were visible. The cells were fixed and stained with crystal violet."}, "[3]": {"system": "p53", "test": "Western blot for p53 and downstream targets in MCF7 cells treated with peptides", "assay_type": "cell-based, human", "conditions": "MCF7 cells; 2.5 μM; 18 hours (FIG. 32C)"}, "[4]": {"system": "p53", "test": "Western blot for p53 and downstream targets in RKO cells treated with peptides", "assay_type": "cell-based, human"}, "[5]": {"system": "HaCaT cells", "test": "HaCaT cell colony formation assay", "assay_type": "cell-based", "conditions": "HaCaT cells (mutant p53); 10 μM for 20 minutes then 0.5 ng/mL doxorubicin 18 hours (FIG. 37D)", "protocol": "For the experiments shown in FIG. 37D, HaCaT and MiaPaCa2 cells were grown in 6-well plates at 500 cells per well. The following day, 10 μM Pen-Ctrl (SEQ ID NO:10), Pen-Pep23 (SEQ ID NO:9), or Pen-Pep8 (SEQ ID NO:50) were added to the cells for 20 minutes followed by treatment with 0.5 ng/mL doxorubicin (for HaCaT cells) or 0.25 ng/mL doxorubicin (for miaPaCa2 cells) for 18 hours, then the media was changed to fresh DMEM. After colonies formed they were fixed (i.e., using 7:1 MeOH:glacial acetic acid) and stained with crystal violet."}, "[6]": {"system": "RKO cells", "test": "RKO cell colony formation assay (peptides)", "assay_type": "cell-based, human", "conditions": "5 μM, 3.125 ng/mL doxorubicin 48 hours (FIG. 34D)", "protocol": "as §1, with “34D, RKO” for “34C, MCF7”, “2×10^3” for “1×10^3”, “Pen-Ctrl, 5 μM Pen-Pep23,” for “Pen-Ctrl”, “Pen-Pep8.” for “Pen-Pep23.”, “3.125” for “6.25”"}, "[7]": {"system": "tumor cell colony formation", "test": "Tumor cell colony formation assay, cell line not stated (FIGS. 13C, 20D)", "assay_type": "cell-based", "conditions": "with and without doxorubicin 6.25 ng/mL; versus Pen-Ctrl (FIG. 20D)"}, "[8]": {"system": "mutant p53 (R248W)", "test": "Western blot for mutant p53 in MIA-PaCa-2 cells treated with oligonucleotides", "assay_type": "cell-based", "conditions": "p53 R248W (FIGS. 29A, 29B)", "excerpt": "FIGS. 29A-29C show data illustrating the effects of oligonucleotides of the present invention with respect to wild type and mutant p53. […] Oligonucleotide sequences were as follows: M3, SEQ ID NO:14; 14A/G, SEQ ID NO:20; 14U/G, SEQ ID NO:49; 15A, SEQ ID NO:21; 6A/G, SEQ ID NO:45; 6U/G, SEQ ID NO:46; 10A/G, SEQ ID NO:47; 10 U/G, SEQ ID NO:48.\nFIGS. 29A and 29B show the results of experiments exploring the effects of oligonucleotides of the present invention on wild type and mutant p53. Oligonucleotides M3, 14A/G, 15A, and 6U/G were used to treat MCF7 cells expressing wild type p53 and MIA-PaCa-2 cells expressing mutant p53 (R248W). […] The effect was limited to the 6U/G oligonucleotide. […] Oligonucleotide sequences were as follows: M3, SEQ ID NO:14; 14A/G, SEQ ID NO:20; 14U/G, SEQ ID NO:49; 15A, SEQ ID NO:21; 6A/G, SEQ ID NO:45; 6U/G, SEQ ID NO:46; 10A/G, SEQ ID NO:47; 10 U/G, SEQ ID NO:48."}, "[9]": {"system": "p53", "test": "Western blot for p53 in MCF7 cells treated with oligonucleotides", "assay_type": "cell-based, human", "conditions": "MCF7 cells (FIG. 29A)"}, "[10]": {"target": "eIF4E (His-tagged) (Homo sapiens, UniProt P06730)", "sequence (P06730 whole entry)": "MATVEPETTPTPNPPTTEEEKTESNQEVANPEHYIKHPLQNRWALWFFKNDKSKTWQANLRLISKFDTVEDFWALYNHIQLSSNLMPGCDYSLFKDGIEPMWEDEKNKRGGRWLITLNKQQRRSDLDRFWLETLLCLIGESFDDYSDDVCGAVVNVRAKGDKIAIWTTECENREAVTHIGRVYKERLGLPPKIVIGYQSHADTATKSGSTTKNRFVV", "test": "Pulldown of His-tagged eIF4E by peptides bound to TentaGel resin", "assay_type": "binding", "conditions": "linear and cyclized Pep8 on TentaGel resin; 2 μg purified eIF4E overnight (FIG. 36A)", "protocol": "The peptides bound to Tentagel™ resin were incubated with His-eIF4E overnight and then washed extensively before being eluted with SDS-PAGE lysis buffer followed by Western blot assay for His-eIF4E. Lane #1: peptide-8 (SEQ ID NO:1); Lane #2: Cyc-8 peptide (SEQ ID NO:5); Lane #3: kAmi-8 peptide (SEQ ID NO:8); Lane #4: Ami-8 peptide (SEQ ID NO:7).\nFor the experiments shown in FIG. 36A, linear and cyclized versions of Pep8 (i.e., peptides having the amino acid sequences set forth in SEQ ID NOS:1, 5, 7, and 8) were synthesized and bound to TentaGel resin. Resin was washed 3× with 1× lysis buffer, and then incubated with 1× lysis buffer+0.3% BSA for 1 hour while rotating in a cold room. Next, resin was incubated with 1× lysis buffer+0.3% BSA+2 μg purified eIF4E (His-tagged) overnight. Next, resin was washed with 1× lysis buffer+0.3% BSA 3 times, followed by washing with 1× lysis buffer with no Triton X-100 three times. Finally, elution was performed with 1×SDS-loading buffer (70 μl) to load all onto a 12% SDS-PAGE gel for Western blot for His-tagged eIF4E."}, "[11]": {"system": "MCF7 tumor spheres", "test": "MCF7 tumor sphere assay", "assay_type": "cell-based, human", "conditions": "MCF7 cells; 150 nM with 3 μg PEP1; 3.125 ng/mL doxorubicin; 7 days (FIG. 36C)", "protocol": "For the experiments shown in FIG. 34E, MCF7 cells were plated at a density of 20,000 cells per well using 2 mL Mammocult media in 6-well ultra-low adherent plates. The following day, cells were treated with Pen-Ctrl or Pen-Pep8 at a concentration of 5 μM. Peptides were added to each well for 20 minutes followed by 6.25 ng/mL doxorubicin. Cells were grown for 7 days and then the number of tumor spheres that were larger than 50 μm in diameter were counted (i.e., 20 10× photos were randomly taken and tumor spheres counted from the digital photos). For the graph shown in FIG. 34F, statistical analysis was performed using the student's t-test (n=3; *p≤0.05).\nFor the experiments shown in FIG. 36C, MCF7 cells were plated at a density of 20,000 cells per well using 2 mL Mammocult media in 6-well ultra-low adherent plates. The following day, cells were treated with 150 nM Cyc-Ctrl or Cyc-Pep8 (SEQ ID NO:5). 150 nM Cyc-Ctr/Pep8 was incubated in 100 μL serum-free DMEM with 3 μg PEP1 for 25 minutes before being added to the cells. After 20 minutes, 3.125 ng/mL doxorubicin was added to the cells for 7 days. Cells were grown for 7 days and then tumor spheres were counted that were larger than 50 μm in diameter (i.e., 20 10× photos were randomly taken and tumor spheres were counted from the digital photos)."}}, "note": "Bridges are numbered along the chain shown (N, C = ends). Where no end group is shown, it is not given here. [ ]: non-standard residue; d: D form."}
{"substance": "RQIKIWFQNRRMKWKKIGYQSHADTATKSGSTTKNRFVV [Pen-eIF4E, Penetratin fused to eIF4E peptide]", "values": [{"measurement": "colony formation, sensitization to low-dose doxorubicin", "setting": "[1]", "value": "sensitized to low-dose doxorubicin"}, {"measurement": "colony formation, sensitization to low-dose doxorubicin", "setting": "[2]", "value": "sensitized MCF7 and RKO cells to low-dose doxorubicin"}, {"measurement": "p53 expression (Western blot)", "setting": "[3]", "value": "induced p53 expression"}, {"measurement": "sensitization to low-dose etoposide (p53 Western blot)", "setting": "[4]; RKO cells, 1.5 μM for 20 minutes then 0.125 ng/mL etoposide 18 hours (FIG. 34I)", "value": "also to low-dose etoposide"}, {"measurement": "sensitization to low-dose doxorubicin (p53 Western blot)", "setting": "[4]; RKO cells, 1.5 μM for 20 minutes then 6.25 ng/mL doxorubicin 18 hours (FIG. 34I)", "value": "sensitized to low-dose doxorubicin"}, {"measurement": "p53 expression (Western blot)", "setting": "[4]; RKO cells, 2.5 μM, 18 hours (FIG. 32B)", "value": "induced p53 expression"}, {"measurement": "protein expression of p53 and downstream target MDM2 (Western blot)", "setting": "[4]; RKO cells, 5 μM Penetratin fusion, 18 hours (FIG. 1F)", "value": "enhanced the protein expression of p53 and the downstream target MDM2"}, {"measurement": "colony formation, sensitization to low-dose doxorubicin", "setting": "[5]", "value": "sensitized to low-dose doxorubicin"}, {"measurement": "colony formation, sensitization to low-dose doxorubicin", "setting": "[6]", "value": "sensitized MCF7 and RKO cells to low-dose doxorubicin"}, {"measurement": "cell colony formation, combination with doxorubicin", "setting": "[7]", "value": "striking synergistic effect"}]}
{"substance": "UUUGUUUUUUGUUU (listed as RNA, chemistry not given here) [6U/G]", "values": [{"measurement": "p53 expression in cells expressing mutant p53", "setting": "[8]", "value": "downregulated expression"}, {"measurement": "p53 expression in cells expressing wild type p53", "setting": "[9]", "value": "unregulated p53 expression"}]}
{"substance": "cYPYAASPAc ([dC]YPYAASPA[dC]; disulfide 1-10 (inferred)) [Cyc-8, disulfide cyclic 10-mer of peptide-8]", "values": [{"measurement": "binding of His-tagged eIF4E (pulldown, Western blot)", "setting": "[10]", "value": "bound the most eIF4E"}, {"measurement": "p53 expression in combination with low-dose doxorubicin, cyclized versus linear peptide", "setting": "[4]; 6.25 ng/mL doxorubicin (FIG. 23E)", "value": "stronger effect in combination with low-dose doxorubicin"}, {"measurement": "upregulation of p53 (Western blot), cyclized versus linear peptide", "setting": "[4]; 25 nM, 50 nM, 150 nM, 375 nM peptide (FIGS. 23A-23D)", "value": "stronger upregulation of p53"}, {"measurement": "p53 expression, potency compared to other forms of Pep8 (Western blot)", "setting": "[4]; RKO cells, 25 nM, 50 nM, 150 nM or 375 nM with PEP1 at 20:1 molar ratio, 18 hours (FIG. 36B)", "value": "increased potency compared to other forms of Pep8, as shown by an increase of p53 with the addition of only 25 nM of the peptide"}, {"measurement": "protein expression of p53 and downstream target MDM2 (Western blot)", "setting": "[4]; RKO cells, 375 nM peptide with 7.5 μg PEP1 (20:1), 18 hours (FIG. 1E)", "value": "enhanced the protein expression of p53 and the downstream target MDM2"}, {"measurement": "protein expression of p53 and downstream target MDM2 (Western blot)", "setting": "[4]; RKO cells, 375 nM peptide with 7.5 μg PEP1 (20:1), 18 hours (FIG. 1E), listed as cyclized version of peptide-8", "value": "able to increase p53 protein expression"}, {"measurement": "tumor spheres larger than 50 μm in diameter, sensitization to low-dose doxorubicin", "setting": "[11]", "value": "sensitized MCF7 tumor spheres to low-dose doxorubicin treatment"}]}
